# Measurements reported in patent US8097650B2, “Method of treating a condition associated with phosphorylation of TASK-1” (The Trustees of Columbia University In The City of New York, priority 2005, dated 2012).
# Experiments:
# [1] = test system: murine ventricular myocytes; assay: Arrhythmias induced by PKCε activator peptide in murine ventricular myocytes, rescue by TREK-1 activators; assay type: cell-based, mouse; conditions: AA 100 nM or tyrphostin 47 50 μM from 1 min after rupture
# Protocol: FIGS. 23A-23D. Activation of TREK-1 can overcome arrhythmias induced by inhibition of TASK-1. Isolated murine ventricular myocytes were studied in current clamp mode and paced at 1 Hz. The cells were studied in regular Tyrode's, pH 7.4. Recordings were begun immediately after rupture and continued for 12-15 min, with the 5.5 min time point illustrated. A PKCε-specific activator peptide (100 nM) was included in the patch pipette, which lead to inhibition of TASK-1 current and repolarization abnormalities (23A and 23B).
# FIG. 25. Activation of TREK-1 can overcome arrhythmias induced by inhibition of TASK-1. Isolated murine ventricular myocytes were studied in current clamp mode and paced at 1 Hz. The cells were studied in regular Tyrode's, pH 7.4. Recordings were begun immediately after rupture and continued for 12-15 min. A PKCε-specific activator peptide (100 nM) […] or a scrambled control peptide (100 nM) (25A) was included in the patch pipette. After the activator peptide had induced repolarization abnormalities (25B left panel), a TREK-1 activator, ONO-RS-082 (100 nM) was added to the superfusion.
# Isolated murine ventricular myocytes were studied in current clamp mode and paced at 1 Hz. The cells were studied in regular Tyrode's, pH 7.4, and recordings were begun immediately after rupture and continued for 12-15 min, with the 5.5 min timepoint illustrated. As shown in FIGS. 23A and 23B, a PKCε-specific activator peptide (100 nM) was included in the patch pipette which lead to inhibition of TASK-1 current and repolarization abnormalities.
# TREK-1 [2] = target: T1, TREK-1 (Homo sapiens, UniProt O95069); assay: Heterologous expression of TREK-1, lipoxygenase products; assay type: cell-based; parameters: expressed in transfected cells
# T1 sequence (O95069 1-426): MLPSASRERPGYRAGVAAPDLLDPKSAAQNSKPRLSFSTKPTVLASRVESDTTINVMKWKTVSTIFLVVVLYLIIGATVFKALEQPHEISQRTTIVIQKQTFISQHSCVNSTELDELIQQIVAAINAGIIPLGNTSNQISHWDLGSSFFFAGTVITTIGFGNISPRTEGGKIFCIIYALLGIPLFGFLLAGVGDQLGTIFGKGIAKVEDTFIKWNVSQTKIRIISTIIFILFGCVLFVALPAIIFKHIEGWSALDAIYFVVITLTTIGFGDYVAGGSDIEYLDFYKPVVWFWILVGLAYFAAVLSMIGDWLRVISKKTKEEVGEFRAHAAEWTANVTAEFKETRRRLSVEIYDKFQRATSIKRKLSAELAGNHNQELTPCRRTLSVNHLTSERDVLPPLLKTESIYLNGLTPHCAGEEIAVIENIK
# Excerpt: In heterologous expression studies of one 2PK, TREK-1, it has been observed that a divergence in the sensitivity of the channel to various lipoxygenase products exists. […] Altered channel function may underlie some of the aberrant regulation of cell proliferation characteristic of the carcinoma cells. In addition, it has been observed that Northern analysis of normal prostate tissue show expression of TASK-1, TASK-3 and TREK-1 in prostate (Duprat F et al., […] EMBO J. 16:5464-71; Mu D et al., (2003) Cancer Cell, 3:297-302; Medhurst A D et al., (2001) Brain Res, 86:101-14).
# [3] = test system: mouse ventricular myocytes; assay: Repolarization abnormalities in mouse ventricular myocytes paced at 1 Hz with PKCε peptides; assay type: cell-based
# Protocol: (§1) Mouse ventricular myocytes were isolated using a retrograde coronary perfusion method previously published (Kuznetsov V et al. (1995) Circ Res 76: 40-52). All the experiments were carried out according to the guidelines issued by the IACUC of Columbia University. Adult mice 2 or 3 months old, were anaesthetized with a xylazine and ketamine mix and heparinized, the heart was quickly removed and the ascending aorta was connected to the outlet of a Langendorff column and perfused with 20-25 ml of a buffer solution (37° C.) containing (mM):NaCl, 112; KCl, 5.4; NaHCO3, 4.2; MgCl2, 1.6; HEPES, 20; glucose, 5.4; NaH2PO4, 1.7; taurine, 10; L-glutamine, 4.1; MEM amino acids solution, 2%; MEM vitamin solution, 1%; adjusted to pH 7.4, and equilibrated with 100% O2. Next, the heart was perfused with an enzyme solution containing collagenase (0.2 mg/ml; Worthington Type II) and trypsin (0.04 mg/ml) at 35° C. for 10-12 min. After this perfusion, the atria were removed and the ventricles minced and transferred to a 50 ml flask with an enzyme solution containing collagenase (0.45 mg/ml), trypsin (0.08 mg/ml), Ca^2+ (0.75 mM) and bovine serum albumin (BSA; 4.8 mg/ml). The flask was shaken vigorously for 5-10 min at 32° C. before the supernatant was removed and the cells were collected by centrifugation, this operation was repeated two or three times and additional disaggregated cells were collected. After centrifugation, the myocytes were resuspended in the buffer solution containing Ca^2+ (0.75 mM) and BSA and stored at room temperature until use. Rod-shaped, Ca^2+-tolerant myocytes, obtained with this procedure, were used within 6 h of dissociation. Measurements were performed only on quiescent myocytes with clear striations
# (§2) The myocyte suspension or the coverslip with CHO cells was placed into a perfusion chamber, mounted on the stage of an inverted microscope. Unless otherwise indicated, CHO cells were superfused at room temperature with standard external Tyrode's buffer, containing (mM): NaCl, 140; KCl, 5.4; CaCl2, 1; MgCl2, 1; HEPES, 5; glucose, 10; adjusted to pH 7.4. Recordings were begun after the current reached a stable baseline (usually 3 to 4 min after initial cell rupture). In myocytes, TASK-1 current is small and exists in the presence of numerous larger K^+ currents. In order to increase the inward component of TASK-1 current and to block other potassium currents in myocytes, a modified high K^+ external solution (modified Tyrode's) was used to reduce outward rectification of TASK-1 current. The composition of this solution-was (in mM): NaCl, 100; KCl, 50; CaCl2, 1; MgCl2, 1; HEPES, 5; glucose, 10; tetraethylammonium (TEA), 1; CsCl, 5; adjusted to pH 7.4. Membrane potential and current were measured in the whole cell configuration using borosilicate glass pipettes with a tip resistance between […] and filled with a pipette solution containing (mM): aspartic acid, 130; KOH, 146; NaCl, 10; CaCl2, 2; EGTA, 5; HEPES, 10; MGATP, 2; pH 7.2. The stock solutions of C-PAF and of the PKC inhibitor, bisindolylmaleimide (BIM-I; Calbiochem), were prepared in water and diluted to the final concentrations in Tyrode's or modified Tyrode's, as appropriate. The PKC activator, PMA, was prepared in DMSO and then diluted in Tyrode's. […] Myocytes treated with the peptides were monitored continuously beginning immediately after rupture to detect the occurrence of any arrhythmias during dialysis of the peptide. Application of C-PAF to cells treated with the inhibitor peptide was started after the peptide had been permitted to dialyse into the cell (8-10 min after rupture for CHO or 10-12 min after rupture for myocytes).
# The current and the voltage protocols were generated using Clampex 8.0 software applied by means of an Axopatch 200-B and a Digidata 1200 interface (Axon Instruments). In current clamp mode, for recording action potentials, the signals were filtered at 1 KHz (low pass Bessel filter) and acquired at a sampling rate of 5 KHz. […]
# murine TASK-1 = assay: TASK-1 current expressed in CHO cells (whole-cell ramp clamp); assay type: cell-based, mouse; conditions: peptide 100 nM in pipette, PMA 100 nM; for effect of peptide on C-PAF and PMA inhibition of TASK-1 current: C-PAF 185 nM
# Protocol: The TASK-1 clone (provided by Professor Y. Kurachi, Osaka University) was co-transfected in CHO cells with CD8 plasmid using Lipofectamine Plus (Invitrogen) according to the manufacturer's instructions. 48 h later cells were transferred to the electrophysiology chamber and anti-CD8 coated beads (Dynal Biotech) were added to identify CD8 expressing cells. Expressing cells were voltage clamped using a ramp clamp (see below). CHO cells were used in these experiments, in part, because they express endogenous PAFR.
# Chinese hamster ovary cells (CHO) were grown in F-12 medium supplemented with 10% fetal bovine serum. Twenty-four hours prior to transfection, cells were seeded into 6 well plates at 80-90% of confluence. Transfections were carried out with the GeneJammer transfection reagent (Stratagene) according to the manufacturer's instructions. Briefly, cells were washed with PBS and their medium replaced with supplemented F-12 medium (900 μl/well). For each well, GeneJammer (6 μl) was incubated with Opti-MEM (90 μl) followed by the addition of DNA (1 μg). This mixture was then added to the wells and 3 h later an additional 2 ml of supplemented F-12 medium was added. After incubating overnight, the cells were washed and their medium replaced.
# Cells were either co-transfected with pCMV-TASK1 together with pEGFP-C1 (1 μg total, 3:1) or transfected with […] or T381A-pTIE (1 μg). 48 h after the transfection the cells were checked under the microscope for green fluorescence. Approximately 20% of the cells were positive for EGFP and these were then used for patch-clamp experiments. Due to the culture-to-culture variability in the expression of TASK-1 current, most comparisons were made on matched controls from the same transfection. Summary results were then obtained by pooling data from several different culture preparations.
# as §2
# The current and the voltage protocols were generated using Clampex 8.0 software applied by means of an Axopatch 200-B and a Digidata 1200 interface (Axon Instruments). […]
# TASK-1 = assay: C-PAF-sensitive TASK-1 current in mouse ventricular myocytes dialyzed with PKCε peptides; assay type: cell-based; conditions: for effect of peptide on ability of C-PAF to reduce TASK-1 current: held at −10 mV, peptide 100 nM in pipette, C-PAF 185 nM
# Protocol: as §1
# The myocyte suspension or the coverslip with CHO cells was placed into a perfusion chamber, mounted on the stage of an inverted microscope. Unless otherwise indicated, CHO cells were superfused at room temperature with standard external Tyrode's buffer, containing (mM): NaCl, 140; KCl, 5.4; CaCl2, 1; MgCl2, 1; HEPES, 5; glucose, 10; adjusted to pH 7.4. Recordings were begun after the current reached a stable baseline (usually 3 to 4 min after initial cell rupture). In myocytes, TASK-1 current is small and exists in the presence of numerous larger K^+ currents. […] Membrane potential and current were measured in the whole cell configuration using borosilicate glass pipettes with a tip resistance between […] and filled with a pipette solution containing (mM): aspartic acid, 130; KOH, 146; NaCl, 10; CaCl2, 2; EGTA, 5; HEPES, 10; MGATP, 2; pH 7.2. […] Myocytes treated with the peptides were monitored continuously beginning immediately after rupture to detect the occurrence of any arrhythmias during dialysis of the peptide. […]
# TREK-1 [4] = target: T1, TREK-1; assay: Human TREK-1 current in CHO cells (ramp clamp); assay type: cell-based; parameters: expressed in transfected cells; host or cells: CHO cells; conditions: ramp −130 to +40 mV, typical of 7 cells
# Protocol: FIG. 18. Structure-activity analysis of activators of human TREK-1 channel. Human TREK-1 was expressed in CHO cells and current was measured during a ramp protocol (−120 to +50 mV in 6 s). The activation of the current at +50 mV in the presence of various putative TREK-1 activators was measured and summarized in the bar graph as % activation over basal. Various endogenous lipids, most related to lipoxygenase metabolites of either arachidonic acid or linoleic acid, were tested (all at 100 nM).
# FIG. 21. CHO cells (hTREK-1, hTASK-1) or HEK cells (mTRAAK) were co-transfected with plasmids encoding one of the two pore domain channels and GFP using the GeneJammer reagent. After 48-60 h, the expressed current was measured using a ramp protocol while the cells were perfused with regular Tyrode's solution containing varying concentrations of ONO-RS-082 (range of concentration from 10 nM to 500 μM as noted in FIG. 21) until a steady state was reached. Each cell was exposed to only one concentration of drug. Panel A: TREK-1 current was determined using a ramp clamp, and the percent increase induced by ONO-RS-082 was measured at the most positive imposed voltage (n≧5). The EC50 for activation was around 3 μM and the basal and ONO-activated current densities are noted. Panel B: TASK-1 current was determined using a ramp clamp in Tyrode's solution at pH=8 and the percent increase induced by ONO-RS-082 was measured at the most positive imposed voltage (n≧4). The EC50 was around 8 μM and the basal and ONO-activated current densities are noted. Panel C: TRAAK current was determined using a ramp clamp, and the percent increase induced by ONO-RS-082 was measured at the most positive imposed voltage (n≧4). The EC50 was around 0.9 μM and the basal and ONO-activated current densities are noted.
# Subsequently, the structure-activity analysis of activators of human TREK-1 channel was determined. […] The activation of the current at +50 mV in the presence of various putative TREK-1 activators was measured and summarized in the bar graph as % activation over basal.
# CHO cells were transfected with a plasmid encoding human TREK-1 and the current was studied by patch clamp. The current-voltage relation was determined using a ramp protocol that went from −130 mV to +40 mV in 6 s (after correction for the junction potential). […] This is typical of 7 cells.
molecule,measurement,setting,value
N#C/C(=C\c1ccc(O)c(O)c1)C(N)=S [tyrphostin 47],arrhythmias induced by PKCε activator peptide during drug superfusion,[1],fewer arrhythmias
CCCCCC(/C=C/C=C\C/C=C\C/C=C\CCCC(=O)O)OO (stereo not shown) [15-HPETE],effect on TREK-1 current,TREK-1 [2],increases TREK-1 current
EAVSLKPT [PKCε-inhibitor peptide],repolarization abnormalities,"[3]; C-PAF, PKCε-specific inhibitor peptide 100 nM in pipette",completely absent
same,effect of peptide on PMA-sensitive current,murine TASK-1,completely blocked
same,effect of peptide on C-PAF and PMA inhibition of TASK-1 current,murine TASK-1,blocked the effect
same,effect of peptide on ability of C-PAF to reduce TASK-1 current,TASK-1,significantly inhibited
same,C-PAF-sensitive current in the presence of peptide,"TASK-1; ramp −50 to +30 mV, modified Tyrode's, inhibitor peptide 100 nM",abolished
CCCCC/C=C\C/C=C\C/C=C\C/C=C\CCCC(=O)O [arachidonic acid],arrhythmias induced by PKCε activator peptide during drug superfusion,[1],fewer arrhythmias
"Cc1ccc(Cl)c(Nc2ccccc2C(=O)O)c1Cl [meclofenamate, Meclofenamic acid]",TREK-1 current in the presence of drug,TREK-1 [4],Current was greater
"CCCCC[C@H](O)/C=C/C=C\CCCCCCCC(=O)O [13-HODE, 13(S)-hydroxyoctadecadienoic acid]",effect on TREK-1 current,TREK-1 [2],reduces current
LSETKPAV [scrambled peptide],cells with repolarization abnormalities / abnormal automaticity,"[3]; peptide in pipette, no added C-PAF",2 of 10
same,effect of peptide on C-PAF and PMA inhibition of TASK-1 current,murine TASK-1,no effect
same,effect of peptide on ability of C-PAF to reduce TASK-1 current,TASK-1,had no effect
